Measurements as given in patent US8877748B2, “Heterocyclic fused anthraquinone derivatives, manufacturing method and pharmaceutical composition using thereof” (National Defense Medical Center, priority 2012, dated 2014).
Where “and” joins values, the source holds several entries; their conditions need not be identical. Equal values may be shown once. Read-outs that look alike come from different tables or passages of the source.

Experiments:
[1] = test system: PC-3 prostate cancer cell line; test: SRB assay cell viability, PC-3 prostate cancer cell line; format: cell-based, human
CCRF-CEM = test: NCI screening platform one-dose single concentration screening, leukemia CCRF-CEM; format: cell-based, human; conditions: 10 μM
HL-60, TB = test: NCI one-dose screening, leukemia HL-60, TB; format: cell-based, human; conditions: 10 μM
MOLT-4 = test: NCI one-dose screening, leukemia MOLT-4; format: cell-based, human; conditions: 10 μM
SR = test: NCI one-dose screening, leukemia SR; format: cell-based, human; conditions: 10 μM
PRMI-8226 cell line = test: NCI one-dose screening, leukemia PRMI-8226; format: cell-based, human; conditions: 10 μM
K562cell line = test: NCI one-dose screening, leukemia K562; format: cell-based, human; conditions: 10 μM
HOP-62 = test: NCI one-dose screening, non-small cell lung cancer HOP-62; format: cell-based, human; conditions: 10 μM
HOP-92 = test: NCI one-dose screening, non-small cell lung cancer HOP-92; format: cell-based, human; conditions: 10 μM
NCI-H23 = test: NCI one-dose screening, non-small cell lung cancer NCI-H23; format: cell-based, human; conditions: 10 μM
NCI-H322M = test: NCI one-dose screening, non-small cell lung cancer NCI-H322M; format: cell-based, human; conditions: 10 μM; Non-small cell lung cancer
NCI-H460 = test: NCI one-dose screening, non-small cell lung cancer NCI-H460; format: cell-based, human; conditions: 10 μM
NCI-H522 = test: NCI one-dose screening, non-small cell lung cancer NCI-H522; format: cell-based, human; conditions: 10 μM
A549/ATCC = test: NCI one-dose screening, non-small cell lung cancer A549/ATCC; format: cell-based, human; conditions: 10 μM
COLO 205 = test: NCI one-dose screening, colon cancer COLO 205; format: cell-based, human; conditions: 10 μM
HCC-2998 = test: NCI one-dose screening, colon cancer HCC-2998; format: cell-based, human; conditions: 10 μM
HCT-116 = test: NCI one-dose screening, colon cancer HCT-116; format: cell-based, human; conditions: 10 μM
HCT-15 = test: NCI one-dose screening, colon cancer HCT-15; format: cell-based, human; conditions: 10 μM
KM12 = test: NCI one-dose screening, colon cancer KM12; format: cell-based, human; conditions: 10 μM
SF-268 = test: NCI one-dose screening, CNS cancer SF-268; format: cell-based, human; conditions: 10 μM
SF-295 = test: NCI one-dose screening, CNS cancer SF-295; format: cell-based, human; conditions: 10 μM
SF-539 = test: NCI one-dose screening, CNS cancer SF-539; format: cell-based, human; conditions: 10 μM
SNB-19 = test: NCI one-dose screening, CNS cancer SNB-19; format: cell-based, human; conditions: 10 μM
SNB-75 = test: NCI one-dose screening, CNS cancer SNB-75; format: cell-based, human; conditions: 10 μM
U251 = test: NCI one-dose screening, CNS cancer U251; format: cell-based, human; conditions: 10 μM
LOX IMVI = test: NCI one-dose screening, melanoma LOX IMVI; format: cell-based, human; conditions: 10 μM
MALME-3M = test: NCI one-dose screening, melanoma MALME-3M; format: cell-based, human; conditions: 10 μM
M14 = test: NCI one-dose screening, melanoma M14; format: cell-based, human; conditions: 10 μM
UACC-62 = test: NCI one-dose screening, melanoma UACC-62; format: cell-based, human; conditions: 10 μM
UACC-257 = test: NCI one-dose screening, melanoma UACC-257; format: cell-based, human; conditions: 10 μM
SK-MEL-2 = test: NCI one-dose screening, melanoma SK-MEL-2; format: cell-based, human; conditions: 10 μM
SK-MEL-28 = test: NCI one-dose screening, melanoma SK-MEL-28; format: cell-based, human; conditions: 10 μM
SK-MEL-5 = test: NCI one-dose screening, melanoma SK-MEL-5; format: cell-based, human; conditions: 10 μM
IGROV1 = test: NCI one-dose screening, ovarian cancer IGROV1; format: cell-based, human; conditions: 10 μM
OVCAR-3 = test: NCI one-dose screening, ovarian cancer OVCAR-3; format: cell-based, human; conditions: 10 μM
OVCAR-4 = test: NCI one-dose screening, ovarian cancer OVCAR-4; format: cell-based, human; conditions: 10 μM
OVCAR-8 = test: NCI one-dose screening, ovarian cancer OVCAR-8; format: cell-based, human; conditions: 10 μM
SK-OV-3 = test: NCI one-dose screening, ovarian cancer SK-OV-3; format: cell-based, human; conditions: 10 μM
786-O = test: NCI one-dose screening, renal cancer 786-O; format: cell-based, human; conditions: 10 μM
CAKI-1 = test: NCI one-dose screening, renal cancer CAKI-1; format: cell-based, human; conditions: 10 μM
[2] = NCI one-dose screening, renal cancer A489; format: cell-based, human; conditions: 10 μM
SN12C = test: NCI one-dose screening, renal cancer SN12C; format: cell-based, human; conditions: 10 μM
TK-10 = test: NCI one-dose screening, renal cancer TK-10; format: cell-based, human; conditions: 10 μM
UO-31 = test: NCI one-dose screening, renal cancer UO-31; format: cell-based, human; conditions: 10 μM
RXF, 393 = test: NCI one-dose screening, renal cancer RXF, 393; format: cell-based, human; conditions: 10 μM
DU145 = test: NCI one-dose screening, prostate cancer DU145; format: cell-based, human; conditions: 10 μM
PC-3 = test: NCI one-dose screening, prostate cancer PC-3; format: cell-based, human; conditions: 10 μM
MCF7 = test: NCI one-dose screening, breast cancer MCF7; format: cell-based, human; conditions: 10 μM
HS 578-T = test: NCI one-dose screening, breast cancer HS 578-T; format: cell-based, human; conditions: 10 μM; Breast cancer
MDA-MB-231/ATCC = test: NCI one-dose screening, breast cancer MDA-MB-231/ATCC; format: cell-based, human; conditions: 10 μM
MDA-MB-468 = test: NCI one-dose screening, breast cancer MDA-MB-468; format: cell-based, human; conditions: 10 μM
BT-549 = test: NCI one-dose screening, breast cancer BT-549; format: cell-based, human; conditions: 10 μM
T-47D = test: NCI one-dose screening, breast cancer T-47D; format: cell-based, human; conditions: 10 μM
human tumor cell lines = test: NCI one-dose screening, Mean / Delta / Range of growth percent over all tested cell lines; format: cell-based; conditions: 10 μM; for Growth Percent Delta: delta over all cell lines; for Growth Percent Mean: mean over all cell lines; for Growth Percent Range: range over all cell lines
NCI-H226 = test: NCI one-dose screening, non-small cell lung cancer NCI-H226; format: cell-based, human; conditions: 10 μM

O=C1c2ccccc2C(=O)c2c1cc(Cl)c1nsnc21 [C2, 4-Chloro-anthraquinone[2,1-c][1,2,5] thiadiazole-6,11-dione]
IC50 ([1]; PC-3 prostate cancer cell line, Table II prints no unit, μM printed, read-out: SRB assay: 50% inhibition of cancer cell proliferation of sample concentration (IC50) of PC-3 prostate cancer cell line): 13.5 µM
Growth Percent CCRF-CEM (CCRF-CEM): −41.78%
Growth Percent HL-60(TB) (HL-60, TB): 1.87%
Growth Percent MOLT-4 (MOLT-4): −34.12%
Growth Percent SR (SR): −23.86%
Growth Percent RPMI-8226 (PRMI-8226 cell line): 27.81%
Growth Percent K562 (K562cell line): 2.44%
Growth Percent HOP-62 (HOP-62): 82.19%
Growth Percent HOP-92 (HOP-92): 75.8%
Growth Percent NCI-H23 (NCI-H23): 100.39%
Growth Percent NCI-H322M (NCI-H322M): 75.02%
Growth Percent NCI-H460 (NCI-H460): 108.2%
Growth Percent NCI-H522 (NCI-H522): 100.18%
Growth Percent A549/ATCC (A549/ATCC): 103.21%
Growth Percent COLO 205 (COLO 205): 99.08%
Growth Percent HCC-2998 (HCC-2998): 105.67%
Growth Percent HCT-116 (HCT-116): 48.15%
Growth Percent HCT-15 (HCT-15): 96.8%
Growth Percent KM12 (KM12): 95.88%
Growth Percent SF-268 (SF-268): 37.03%
Growth Percent SF-295 (SF-295): 109.08%
Growth Percent SF-539 (SF-539): 108.52%
Growth Percent SNB-19 (SNB-19): 105.75%
Growth Percent SNB-75 (SNB-75): 85.25%
Growth Percent U251 (U251): 29.19%
Growth Percent LOX IMVI (LOX IMVI): 10.23%
Growth Percent MALME-3M (MALME-3M): 97.09%
Growth Percent M14 (M14): 102.73%
Growth Percent UACC-62 (UACC-62): 72.91%
Growth Percent UACC-257 (UACC-257): 76.09%
Growth Percent SK-MEL-2 (SK-MEL-2): 0.21%
Growth Percent SK-MEL-28 (SK-MEL-28): 131.75%
Growth Percent SK-MEL-5 (SK-MEL-5): 72.45%
Growth Percent IGROV1 (IGROV1): 52.47%
Growth Percent OVCAR-3 (OVCAR-3): 49.88%
Growth Percent OVCAR-4 (OVCAR-4): −75.03%
Growth Percent OVCAR-8 (OVCAR-8): −4.57%
Growth Percent SK-OV-3 (SK-OV-3): 109.05%
Growth Percent 786-0 (786-O): 102.14%
Growth Percent CAKI-1 (CAKI-1): 96.51%
Growth Percent A498 [2]: 93.79%
Growth Percent SN12C (SN12C): 71.92%
Growth Percent TK-10 (TK-10): 134.06%
Growth Percent UO-31 (UO-31): 80.15%
Growth Percent RXF 393 (RXF, 393): 71.92%
Growth Percent DU145 (DU145): 96.95%
Growth Percent PC-3 (PC-3): 23.54%
Growth Percent MCF7 (MCF7): 65.36%
Growth Percent HS 578T (HS 578-T): 72.54%
Growth Percent MDA-MB-231/ATCC (MDA-MB-231/ATCC): −23.35%
Growth Percent MDA-MB-468 (MDA-MB-468): −88.31%
Growth Percent BT-549 (BT-549): 101.5%
Growth Percent T-47D (T-47D): −54.59%
Growth Percent Delta (human tumor cell lines): 143.22%
Growth Percent Mean (human tumor cell lines): 54.91%
Growth Percent Range (human tumor cell lines): 222.37%

O=C1c2ccccc2C(=O)c2c1cc(Sc1ccccc1)c1nsnc21 [C19, 4-(phenylthio)anthra[2,1-c][1,2,5] thiadiazol-6,11-dione]
IC50 ([1]; Homo sapiens, PC-3 prostate cancer cell line, Table II prints no unit, μM printed, read-out: SRB assay: 50% inhibition of cancer cell proliferation of sample concentration (IC50) of PC-3 prostate cancer cell line): 28.6 µM
IC50 ([1]; Homo sapiens, PC-3 prostate cancer cells, read-out: IC50 in PC-3 prostate cancer cells (cell viability analysis)): > 15 µM
Growth Percent CCRF-CEM (CCRF-CEM): 15.74%
Growth Percent HL-60(TB) (HL-60, TB): 83.94%
Growth Percent MOLT-4 (MOLT-4): 31.08%
Growth Percent SR (SR): 86.41%
Growth Percent RPMI-8226 (PRMI-8226 cell line): 78.21%
Growth Percent K562 (K562cell line): 52.03%
Growth Percent HOP-62 (HOP-62): 97.77%
Growth Percent HOP-92 (HOP-92): 110.22%
Growth Percent NCI-H226 (NCI-H226): 117.67% and 94.91%
Growth Percent NCI-H23 (NCI-H23): 101.59%
Growth Percent NCI-H322M (NCI-H322M): 79.21%
Growth Percent NCI-H460 (NCI-H460): 100.74%
Growth Percent NCI-H522 (NCI-H522): 100.56%
Growth Percent A549/ATCC (A549/ATCC): 105.68%
Growth Percent COLO 205 (COLO 205): 117.53%
Growth Percent HCC-2998 (HCC-2998): 110.88%
Growth Percent HCT-116 (HCT-116): 90.08%
Growth Percent HCT-15 (HCT-15): 93.89%
Growth Percent KM12 (KM12): 99.5%
Growth Percent SF-268 (SF-268): 102.24%
Growth Percent SF-295 (SF-295): 106.36%
Growth Percent SF-539 (SF-539): 106.54%
Growth Percent SNB-19 (SNB-19): 108.79%
Growth Percent SNB-75 (SNB-75): 96.12%
Growth Percent U251 (U251): 88.75%
Growth Percent LOX IMVI (LOX IMVI): 42%
Growth Percent MALME-3M (MALME-3M): 106.43%
Growth Percent M14 (M14): 106.41%
Growth Percent UACC-62 (UACC-62): 86.28%
Growth Percent UACC-257 (UACC-257): 92.75%
Growth Percent SK-MEL-2 (SK-MEL-2): 112.49%
Growth Percent SK-MEL-28 (SK-MEL-28): 127.12%
Growth Percent SK-MEL-5 (SK-MEL-5): 85.68%
Growth Percent IGROV1 (IGROV1): 84.4%
Growth Percent OVCAR-3 (OVCAR-3): 96.67%
Growth Percent OVCAR-4 (OVCAR-4): 57.83%
Growth Percent OVCAR-8 (OVCAR-8): 82.3%
Growth Percent SK-OV-3 (SK-OV-3): 105.6%
Growth Percent 786-0 (786-O): 110.04%
Growth Percent CAKI-1 (CAKI-1): 89.04%
Growth Percent A498 [2]: 95.01%
Growth Percent SN12C (SN12C): 96.58%
Growth Percent TK-10 (TK-10): 143.47%
Growth Percent UO-31 (UO-31): 80.12%
Growth Percent RXF 393 (RXF, 393): 114.31%
Growth Percent DU145 (DU145): 102.73%
Growth Percent PC-3 (PC-3): 87.32%
Growth Percent MCF7 (MCF7): 94.88%
Growth Percent HS 578T (HS 578-T): 95.89%
Growth Percent MDA-MB-231/ATCC (MDA-MB-231/ATCC): 66.67%
Growth Percent MDA-MB-468 (MDA-MB-468): 87.29%
Growth Percent BT-549 (BT-549): 104.68%
Growth Percent T-47D (T-47D): 93.21%
Growth Percent Delta (human tumor cell lines): 77.74%
Growth Percent Mean (human tumor cell lines): 93.48%
Growth Percent Range (human tumor cell lines): 123.73%
